Measurements reported in the supplement of paper PMC10307832.

Legend:
Assay in all cases: relative viability (nuclei count vs DMSO), 5 days (fraction); higher = more cells survive
[1] = compound: CC(O)(CS(=O)(=O)c1ccc(F)cc1)C(=O)Nc1ccc(C#N)c(C(F)(F)F)c1 [Bicalutamide] + COc1cccc2cc(-c3nc([C@H]4CC[C@H](C(=O)O)CC4)n4ncnc(N)c34)[nH]c12 [OSI-027] (partner 0.5 µM)
Outline: (§1)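 Relative viability equals treated-well nuclei counts divided by vehicle-well nuclei counts. Counts came from 4× images of lung cancer cell lines grown in 1536-well plates for 5 days after pin-tool dosing on the day after seeding. Dosing used one drug alone or a fixed anchor-drug dose plus five library-drug doses (not always all listed) in √10 steps, and values are medians of duplicate plates.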

[2] = compound: C(C(=O)C(=O)O)Br [Bromopyruvate] + O=C(c1cc(Cc2n[nH]c(=O)c3ccccc23)ccc1F)N1CCN(C(=O)C2CC2)CC1 [Olaparib] (partner 8 µM)
Outline: as §1

[3] = compound: CC(O)(CS(=O)(=O)c1ccc(F)cc1)C(=O)Nc1ccc(C#N)c(C(F)(F)F)c1 [Bicalutamide] + CC(=O)Nc1cccc(-n2c(=O)n(C3CC3)c(=O)c3c(Nc4ccc(I)cc4F)n(C)c(=O)c(C)c32)c1 [Trametinib] (partner 0.02 µM)
Outline: as §1

[4] = compound: CC(O)(CS(=O)(=O)c1ccc(F)cc1)C(=O)Nc1ccc(C#N)c(C(F)(F)F)c1 [Bicalutamide] + C[C@@H](Oc1cc(-c2cnn(C3CCNCC3)c2)cnc1N)c1c(Cl)ccc(F)c1Cl [Crizotinib] (partner 1 µM)
Outline: as §1

Cell Line	relative viability ([1]; first compound 0.08 µM)	relative viability ([1]; first compound 0.253 µM)	relative viability ([1]; first compound 0.8 µM)	relative viability ([1]; first compound 2.53 µM)	relative viability ([2]; first compound 1 µM)	relative viability ([2]; first compound 3.162 µM)	relative viability ([2]; first compound 10 µM)	relative viability ([2]; first compound 31.62 µM)	relative viability ([2]; first compound 100 µM)	relative viability ([3]; first compound 0.08 µM)	relative viability ([3]; first compound 0.253 µM)	relative viability ([3]; first compound 0.8 µM)	relative viability ([3]; first compound 2.53 µM)	relative viability ([4]; first compound 0.08 µM)	relative viability ([4]; first compound 0.253 µM)	relative viability ([4]; first compound 0.8 µM)	relative viability ([4]; first compound 2.53 µM)
NCI-H2126	0.681	0.619	0.673	0.755	0.912	0.879	0.988	0.939	0.923	0.546	0.523	0.545	0.626	1.06	0.983	1.06	0.945
BEN	0.265	0.299	0.274	0.276	0.96	0.994	1.46	1.03	0.99	1.05	0.94	1.17	1.1	0.773	0.778	1.14	0.866
LCLC-103H	0.464	0.425	0.476	0.451	0.744	0.773	0.752	0.848	0.809	0.705	0.676	0.697	0.704	1.06	1.04	1	1.02
EKVX	0.747	0.631	0.739	0.718	0.73	0.87	0.843	0.861	0.874	0.319	0.31	0.359	0.283	0.924	0.81	1.14	0.801
LXF-289	0.816	0.725	0.851	0.672	1.13	1.03	1.1	1.15	1.04	0.667	0.636	0.734	0.656	0.815	0.79	0.797	0.807
NCI-H661	0.719	0.691	0.839	0.699	0.734	0.7	0.799	0.731	0.65	0.631	0.534	0.621	0.558	1.14		0.881	0.989
NCI-H1650	0.71	0.552	0.744	0.649	0.82	0.734	0.723	0.71	0.567	0.586	0.529	0.713	0.473	0.892	0.937	0.979	0.992
NCI-H2087	0.598	0.512	0.579	0.572	0.6	0.574	0.391	0.573	0.451	0.214	0.191	0.178	0.202	1	0.993	0.887	0.971
LC-2-ad	0.962	0.718	0.885	0.684	0.816	0.665	0.352	0.666	0.664	0.892	0.86	0.961	0.907	0.495	0.427	0.462	0.482
COR-L 105	0.644	0.555	0.614	0.572	0.771	0.71	0.642	0.504	0.429	0.397	0.371	0.383	0.381	0.874	0.728	0.661	0.448
NCI-H1355	0.433	0.367	0.464	0.4	0.738	0.762	0.681	0.764	0.776	0.432	0.383	0.447	0.472	1.12	0.993	1.14	1.04
H3255	0.525	0.591		0.498	0.579	0.591	0.558	0.563	0.571	0.666	0.567	0.717	0.569	0.963	0.845	1.05	0.719
NCI-H2009	0.756	0.641	0.74	0.347	0.672	0.688	0.727	0.645	0.461	0.296	0.225	0.296	0.248	1.01	1.01	1.04	0.973
NCI-H1734	0.66	0.473	0.614	0.488	0.68	0.585	0.729	0.616	0.429	0.709	0.531	0.681	0.663	0.667	0.553	0.798	0.616
HOP-62	0.927	0.844	0.956	0.785	0.373	0.432	0.798	0.525	0.157	0.396	0.403	0.427	0.354	0.807	0.936	1.33	1
LOU-NH91	0.768	0.659	0.736	0.726	1	0.902	0.974	0.95	1.01	0.755	0.724	0.82	0.791	0.726	0.681	0.766	0.744
ChaGo-K-1	0.566	0.48	0.631	0.516	0.417	0.466	0.431	0.344	0.301	0.854	0.865	1.03	0.926	1.27	1.1	1.16	1.03
NCI-H23	0.721	0.544	0.605	0.495	0.318	0.316	0.321	0.399	0.196	0.418	0.317	0.434	0.399	0.495	0.467	0.493	0.399
PC-3 [JPC-3]	0.797	0.808	0.768	0.737	1.22		1.11		1.11	0.756	0.737	0.697	0.719	1.02	1.07	1.06	1.02

Cell Line	relative viability ([1]; first compound 0.08 µM)	relative viability ([1]; first compound 0.253 µM)	relative viability ([1]; first compound 0.8 µM)	relative viability ([1]; first compound 2.53 µM)	relative viability ([2]; first compound 1 µM)	relative viability ([2]; first compound 3.162 µM)	relative viability ([2]; first compound 10 µM)	relative viability ([2]; first compound 31.62 µM)	relative viability ([2]; first compound 100 µM)	relative viability ([3]; first compound 0.08 µM)	relative viability ([3]; first compound 0.253 µM)	relative viability ([3]; first compound 0.8 µM)	relative viability ([3]; first compound 2.53 µM)	relative viability ([4]; first compound 0.08 µM)	relative viability ([4]; first compound 0.253 µM)	relative viability ([4]; first compound 0.8 µM)	relative viability ([4]; first compound 2.53 µM)
NCI-H1437	0.969	0.776	0.973	0.841	0.647	0.664	0.656	0.62	0.627	0.598	0.475	0.612	0.476	0.899	0.893	0.895	0.923
NCI-H520	0.237	0.228	0.373	0.251	0.37	0.32	0.367	0.302	0.264	0.725	0.363	0.939	0.432	0.836	0.681	0.93	0.577
NCI-H1666	0.911	0.866	0.916	0.831	0.685	0.733	0.73	0.707	0.716	0.926	0.838	0.866	0.959	1.13	0.969	1.15	0.794
NCI-H1651	0.654	0.562	0.856	0.694	0.188	0.182	0.187	0.207	0.167	0.836	0.773	0.932	0.83	0.868	0.861	0.912	0.892
NCI-H1755	0.768	0.687	0.82	0.524	0.935	0.865	0.854	0.924	0.936	0.738	0.774	0.776	0.751	0.901	0.803	0.849	0.791
NCI-H727	0.573	0.546	0.623	0.442	0.666	0.707	0.764	0.79	0.634	0.38	0.381	0.414	0.399	0.928	0.85	0.936	0.781
HARA	0.633	0.361	0.744	0.483	0.836	1.45		0.632	0.738	0.942		0.634	0.48	0.946	1.07	1.19	1.09
NCI-H647	0.543	0.628	0.79	0.585	0.567	0.541	0.494	0.585	0.532	0.482	0.429	0.721	0.414	1.11	1.23	1.56	0.777
NCI-H2347	0.395	0.327	0.515	0.427	0.56	0.536	0.511	0.559	0.57	0.283	0.287	0.307	0.249	0.797	0.621	0.689	0.675
LCLC-97TM1	0.598	0.37	0.627	0.422	0.467	0.458	0.481	0.352	0.212	0.214	0.177	0.212	0.188	0.478	0.369	0.317	0.301
EPLC-272H	0.314	0.34	0.325	0.243	0.783	0.885	0.971	0.932	0.699	0.315	0.281	0.332	0.281	0.947	0.898	1.01	0.833
NCI-H1915	0.639	0.516	0.653	0.535	0.261	0.267	0.242	0.254	0.22	0.338	0.288	0.286	0.229	0.873	0.815	0.969	0.889
NCI-H3122	0.951	0.905	1.25	0.881	0.647	0.663	0.631	0.586	0.604	0.202	0.241	0.225	0.258	0.281	0.26	0.277	0.281
NCI-H441	0.689	0.585	0.669	0.534	0.604	0.538	0.643	0.564	0.602	0.492	0.374	0.497	0.406	0.917		0.598	0.61
NCI-H2170	0.765	0.636	0.668	0.705	0.626	0.556	0.625	0.576	0.56	0.892	0.861	0.97	0.931	1.12	1.18	1.39	1.18
NCI-H358	0.903	0.651	1.01	0.67	0.591	0.687	0.628	0.565	0.535	0.161	0.128	0.125	0.132	0.831	0.616	0.44	0.399
PC-14	0.825	0.697	1.6	0.606	0.297	0.368	0.161	0.32	0.205	0.879	0.738	0.926	0.72	0.958	0.972	0.899	0.904
CAL-12T	0.574	0.638	0.72	0.431	0.654	0.661	0.697	0.725	0.65	0.37	0.343	0.398	0.264	0.785	0.556	0.67	0.396
